According to article PMC11195807, “Development of a multi-targeted chemotherapeutic approach based on G-quadruplex stabilisation and carbonic anhydrase inhibition” (Journal of Enzyme Inhibition and Medicinal Chemistry, 2024):
Counter-ions that a name gives are not always drawn.

Experiments:
GQ structures = experiment: BG4 immunofluorescence of GQ foci, HeLa cells in normoxia; type: cell-based; conditions: 24 h, 35.0 µM S-4,0, 40.0 µM C-4,2, 37.5 µM C-5,2, 2 µM RHPS4, over DMSO
Description: After measuring the viability of HeLa cells upon treatment with the newly synthesised MTDLs mentioned above, we probed the capability of the three most cytotoxic ones (S-4,0, C-4,2, and C-5,2) to affect the formation of GQ structures by immunofluorescence (IF) microscopy, using the BG4 antibody that selectively recognises the GQ structures. As it can be noticed in Figure 6, the fluorescence intensity of the total number of GQ foci increased by around 30% after treatment with both the coumarin derivative C-4,2 and the reference GQ binder RHPS4, whereas it was not affected by S-4,0 and C-5,2. […] On the contrary, the levels of GQ structures were influenced neither by the treatment with the sulphonamide S-4,0 nor by the coumarin C-5,2, despite their ability to thermally stabilise some GQ-forming sequences in vitro.
Figure 6. (A) Representative fields showing G4 foci formation detected by immunofluorescence in HeLa cells treated for 24 h with 35.0 µM S-4,0, 40.0 µM C-4,2, and 37.5 µM C-5,2 or an equivalent amount of vehicle (0.1% DMSO). As a positive control, cells were treated with 2 µM RHPS4 (a well-established GQ ligand)[68] for 24 h. Scale bar: 10 µm. Upper panels: the merged channels of BG4-stained GQ structures (magenta) and Hoechst-counterstained nuclei (grey) are reported. Lower panels: enlargements from the pictures in the upper panels. (B) Quantitative analysis of the fluorescence intensity of the total number of GQ foci. An average of 50 cells were screened for each condition and the results are expressed as a fold change of fluorescence intensity (anti-GQ signal) over the negative control (DMSO). Histograms show the mean ± SD of three independent experiments. The statistical significance was calculated using a one-way ANOVA test on GraphPad Prism 8.0.2 (ns: not significant, **: p < 0.01).
For the IF experiments in the presence of normal oxygen levels, HeLa cells were seeded on sterile coverslips, in a 24-well plate, at a density of 90,000 cells per well, and incubated overnight. Then, cells were treated with a sublethal concentration of each investigated MTDL or an equivalent amount of vehicle (0.1% DMSO), for 24 h. As positive control, cells were exposed for 24 h to 2 µM RHPS4. As regards the IF experiments under hypoxic conditions, HeLa were seeded on sterile coverslips, in a 24-well plate, at a density of 50,000 cells per well, and incubated overnight. […] From there, the cellular and nuclear foci were segmented, and their number or fluorescence intensity was quantified by using the Image Analysis package of ZEISS ZEN 3.1 software.

melting point [°C]	Compound	increase of fluorescence intensity of the total number of GQ foci (GQ structures)
171 to 173	COc1ccc2cc3[n+](cc2c1OCc1cn(CCCCCOc2ccc4ccc(=O)oc4c2)nn1)CCc1cc2c(cc1-3)OCO2 (as salt: phosphate) [Compound 44, 10-Methoxy-9-((1–(5-((2-oxo-2H-chromen-7-yl)oxy)pentyl)-1H-1,2,3-triazol-4-yl)methoxy)-5,6-dihydro-[1,3]dioxolo[4,5-g]isoquinolino[3,2-a]isoquinolin-7-ium hexafluorophosphate]	–
280 to 282	COc1ccc2cc3[n+](cc2c1OCc1cn(-c2ccc4c(C)cc(=O)oc4c2)nn1)CCc1cc2c(cc1-3)OCO2 (as salt: phosphate) [Compound 45, 10-Methoxy-9-((1–(4-methyl-2-oxo-2H-chromen-7-yl)-1H-1,2,3-triazol-4-yl)methoxy)-5,6-dihydro-[1,3]dioxolo[4,5-g]isoquinolino[3,2-a]isoquinolin-7-ium hexafluorophosphate]	–
–	COS(=O)(=O)[O-].Cc1cc2c3c([n+](C)c4ccc(F)cc4c3c1)-c1cc(F)ccc1N2C [RHPS4, reference compound]	around 30%
